Test results: EPA's ToxRefDB 2

Columns and labels:
[1] = system: rat; settings: Chronic toxicity, sprague dawley, Oral, Gavage/Intubation, dose end: 6 month, group: systemic
[2] = system: rat; settings: Fertility (Segment I), sprague dawley, Oral, Gavage/Intubation, dose end: 7 GD
[3] = system: dog; settings: Sub-acute repeat dose toxicity, beagle, Oral, Gavage/Intubation, dose end: 29 day, group: systemic
[4] = systemic / clinical chemistry / albumin / albumin + systemic / clinical chemistry / alkaline phosphatase (alp/alk) / alkaline phosphatase (…
[5] = systemic / clinical chemistry / albumin / albumin + systemic / clinical chemistry / aspartate aminotransferase (ast/sgot) / aspartate …
[6] = group: maternal, reproductive / reproductive performance / estrous cycle / abnormal + reproductive / reproductive performance / estrous cycle / corpora lutea…
[7] = group: maternal, reproductive / reproductive performance / implantations / implantations
[8] = group: parental, systemic / in life observation / body weight / body weight gain + systemic / in life observation / clinical signs / abnormal respiratory …
[9] = systemic / in life observation / clinical signs / arrhythmia + systemic / organ weight / testes / absolute + systemic / organ weight / …
[10] = systemic / in life observation / food consumption / food consumption + systemic / pathology microscopic / liver / depletion glycogen + …

| Structure (SMILES) | LOAEL [1, 4] [mg/kg/day] | NOAEL [1, 4] [mg/kg/day] | LEL [1, 5] [mg/kg/day] | NEL [1, 5] [mg/kg/day] | LOAEL [2, 6] [mg/kg/day] | NOAEL [2, 6] [mg/kg/day] | LEL [2, 7] [mg/kg/day] | NEL [2, 7] [mg/kg/day] | LEL [2, 8] [mg/kg/day] | LOAEL [2, 8] [mg/kg/day] | NEL [2, 8] [mg/kg/day] | NOAEL [2, 8] [mg/kg/day] | LEL [3, 9] [mg/kg/day] | NEL [3, 9] [mg/kg/day] | LOAEL [3, 10] [mg/kg/day] | NOAEL [3, 10] [mg/kg/day] |
| --- | --- | --- | --- | --- | --- | --- | --- | --- | --- | --- | --- | --- | --- | --- | --- | --- |
| CCc1c(C(=O)NN2CCCCC2)nn(-c2ccc(Cl)cc2Cl)c1-c1ccc(Br)cc1 [Surinabant] | > 100 | ≥ 100 | 10 | < 10 | 50 | 10 | 10 | < 10 | 10 | > 100 | < 10 | ≥ 100 |  |  |  |  |
| CCc1nn(CCO)c(CC)c1Oc1cc(C#N)cc(C#N)c1 [Lersivirine] |  |  |  |  |  |  |  |  |  |  |  |  | 10 | < 10 | > 50 | ≥ 50 |
